Source: US12371400B2, “Cathepsin inhibitors” (ACADEMISCH ZIEKENHUIS LEIDEN (H.O.D.N. LUMC), priority 2017, dated 2025)
Entries after “also recorded” stand apart in the source; their conditions may differ.

Columns and labels:
CatK = target: T1, CatK (Homo sapiens, UniProt P43235); assay: CatK activity (probe BMV109) and CatK expression (Western blot) in OC lysates; assay type: cell-based; parameters: endogenous in cells; host or cells: human osteoclasts differentiated from CD14+ monocytes on cortical bone slices; settings: for mature CatK in OCs (Western blotting): OCs treated with inhibitor
T1 sequence (P43235 115-329): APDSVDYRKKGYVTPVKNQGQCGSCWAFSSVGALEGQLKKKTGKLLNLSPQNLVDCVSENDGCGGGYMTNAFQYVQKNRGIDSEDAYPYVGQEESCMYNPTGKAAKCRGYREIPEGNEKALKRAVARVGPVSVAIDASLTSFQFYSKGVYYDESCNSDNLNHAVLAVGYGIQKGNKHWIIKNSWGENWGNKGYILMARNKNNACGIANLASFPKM
Description: The inhibitory properties on CatK of inhibitors of this invention were tested in a biologically relevant setting: inhibition of bone resorption by osteoclasts (OCs). OCs are the cells that degrade the bone matrix by secretion of acid and CatK into the resorption lacunae, resulting in the cleavage of collagen type I. Inhibition of osteoclastic CatK was studied by culturing OCs on cortical bone slices in presence of inhibitors of this invention (FIG. 5). […] OCs predominantly form deep trenches (paths) while OCs lacking CatK form small pits (circular dots). B) CD14+ monocytes on bone slices were treated with MCSF (day 0) and RANKL (day 3) to stimulate differentiation to mature OCs. Medium containing either an inhibitor or DMSO was refreshed on day 7, 10, 13 and 16. At day 21, OCs were washed away and lysed, and bone slices were stained to visualize bone resorption. C) Bone resorption visualized by staining of resorption pits with Coomassie Brilliant Blue. More staining means more resorption pits, thus more bone resorption activity. Normal D) Schematic overview of pro-Cathepsin K activation. E) CatK activity and expression in OC lysates. […] Darker bands indicate more activity/expression of CatK.
OC lysates were treated with activity-based irreversible Cathepsin probe BMV109 to assess whether the observed inhibition of bone resorption could be correlated with CatK activity (FIG. 5E).

Cathepsin K = target: T2, Cathepsin K (Homo sapiens, UniProt P43235); assay: LC-MS of intact CatK and CatK-inhibitor complexes; assay type: binding; settings: for formation of covalent CatK-inhibitor complex: 6 h incubation, intact protein LC-MS; for Measured mass complex: CatK 3 μM, inhibitor 100 μM, 37° C., 6 h, deconvoluted ESI mass
T2 sequence (P43235 115-329): T1 sequence (P43235 115-329)
Description: The masses were determined from deconvoluted electrospray ionization mass spectra of CatK complexes. FIG. 4A to FIG. 4E each provide the result for a sample. In each of these FIGS. 4A to 4E the first panel provides the UPLC chromatogram, the second panel provides the electrospray ionization mass spectrum, and the third panel provides the corresponding deconvoluted electrospray ionization mass spectrum (average isotopes) with an indication of the measured mass of the predominant species. FIG. 4A provides the results obtained for intact CatK. FIG. 4B provides the results obtained for CatK.
Cathepsin K (3 μM) in reaction buffer ([…]) was incubated with inhibitor (100 μM) at 37° C. for 6 hours prior to analysis. 1 μL injections of the sample were made onto a XEVO-G2XSQTOF#YEA928 UPLC-MS system with a Waters Acquity CM detector. Chromatographic separation was carried out on a ACQUITY UPLC® Protein BEH C4 Column over a 12 minute gradient elution of 2% to 100% acetonitrile in water (0.1% formic acid) at a flow rate of 0.500 mL/min. For the first 4 minutes the flow was diverted to the waste to avoid contamination of the MS with high concentrations of buffer components. After 4 minutes, the elution flow was ionized with an ESI ionization source and measured on a XEVO-G2XSQTOF. The results were analyzed using MassLynx V4.1. The total mass of the complex was obtained by deconvolution of electrospray ionization mass spectrum envelope (average isotopes) with the MaxEnt1 function.
Cathepsin K was incubated with ODN, 4, 5 or 6 for 6 h to allow full covalent bond formation and submitted for measurement without any digestion steps, according to the method for LC-MS for intact CatK and CatK-inhibitor complexes described in the assays section above.

hCatV = hCatV (Homo sapiens, UniProt O60911); assay: In vitro inhibition of purified human Cathepsin V (Z-FR-AMC); assay type: biochemical; settings: 30 min incubation with inhibitor, mean ± SD, triplicate
Description: (§1) Cathepsin (e.g. Cathepsin K/L/V/S/B), in particular purified human Cathepsin, was diluted in freshly prepared reaction buffer consisting of 50 mM MES pH 5.5, 25 mM EDTA and 2.5 mM DTT. 0.05% Tween20 (v/v) may be added to the reaction buffer of the Cathepsin K.
(§2) Activity assays may be conducted in a suitable manner. […] Plates were shaken at 600 rpm for 1 minute and centrifuged at 1000 rpm for 1 minute prior to incubation. Cathepsin activity was quantified using synthetic fluorogenic peptide substrate Z-FR-AMC (Cath K, L, V), Z-RR-AMC (Cath B) or Z-FVR-AMC (Cath S). Fluorescence intensity (λex=350 nm, λem=440 nm) was measured every 2 minutes in arbitrary units (A.U.) on a CLARIOstar (BMG Labtech) microplate reader and values were converted to product formation [AMC]. […] Measurements were performed in triplicate.
(§3) Inhibitors (200 nL, 100× final concentration in DMSO) were diluted in reaction buffer (10 μL). Purified human Cathepsin (5 μL, 4× final concentration) was added and the reaction mixture was incubated for 30 min at room temperature. Fluorogenic substrate (5 μL, 4× final concentration) was added and fluorescence intensity was measured every 2 minutes for 30-90 minutes.
(§4) The potency of the compounds as CatK inhibitors was assessed in an in vitro inhibition assay on purified human CatK (Table 2). Cathepsin was incubated with inhibitor, and the hydrolysis of substrate was initiated by addition of substrate.

hCatL = hCatL (Homo sapiens, UniProt P07711); assay: In vitro inhibition of purified human Cathepsin L (Z-FR-AMC); assay type: biochemical; settings: 30 min incubation with inhibitor, mean ± SD, triplicate
Description: as §1, §2, §3, §4

hCatK = target: T3, hCatK (Homo sapiens, UniProt P43235); assay: Jump dilution assay for reversibility of hCatK inhibition; assay type: biochemical; settings: 300× dilution into fluorogenic substrate solution
T3 sequence (P43235 115-329): T1 sequence (P43235 115-329)
Description: FIG. 3 provides a schematic overview of a jump dilution assay. A) Dose response curve for a 300-fold dilution of inhibitor concentration from full inhibition to full activity. B) Protocol and concentrations for incubation and dilution. C) Progress curves for hCatK proteolytic activity with inhibitor compounds ODN, 4, 5, 6 after dilution.
Reversibility of protease inhibition by an inhibitor may be assessed in a jump dilution assay. An exemplary jump dilution assay is provided in R. A. Copeland, A. Basavapathruni, M. Moyer, M. P. Scott, Anal. Biochem. 2011, 416, 206. In a jump dilution assay the protease (e.g. CatK) is incubated with inhibitor at high concentration to allow full active site occupation, and subsequently diluted, e.g. 300×, into fluorogenic substrate solution resulting in an inhibitor concentration corresponding with full protease activity. The hydrolysis of fluorogenic substrate is monitored over an extended time period, e.g. at least 60 minutes. […] The assay results may be compared with the results using a known irreversible inhibitor of the protease as a control. E-64 represents an established pan-Cathepsin irreversible inhibitor, suitable for use as a positive control with most cysteine protease Cathepsins.
Reversibility of hCatK inhibition was assessed in a jump dilution assay. Established pan-Cathepsin inhibitor E-64 was taken along as a control for irreversible inhibition. Purified hCatK was incubated with inhibitors at high concentration to allow full active site occupation, and subsequently diluted 300× into fluorogenic substrate solution resulting in an inhibitor concentration corresponding with full activity (FIG. 3).

[1] = samples treated with high concentrations

hCatV, sequence (O60911 114-334): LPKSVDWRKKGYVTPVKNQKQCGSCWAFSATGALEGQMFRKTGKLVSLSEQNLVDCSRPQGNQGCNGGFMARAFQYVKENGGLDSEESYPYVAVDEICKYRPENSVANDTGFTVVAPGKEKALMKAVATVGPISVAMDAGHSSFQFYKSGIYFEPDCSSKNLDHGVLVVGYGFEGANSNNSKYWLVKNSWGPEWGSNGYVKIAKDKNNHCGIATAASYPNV
hCatL, sequence (P07711 114-333): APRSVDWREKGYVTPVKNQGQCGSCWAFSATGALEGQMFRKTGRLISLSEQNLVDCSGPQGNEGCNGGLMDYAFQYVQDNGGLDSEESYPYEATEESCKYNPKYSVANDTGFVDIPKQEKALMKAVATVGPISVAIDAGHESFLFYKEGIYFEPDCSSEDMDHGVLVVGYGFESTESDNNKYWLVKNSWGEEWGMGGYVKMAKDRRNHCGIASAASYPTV

SMILES | mature CatK in OCs (Western blotting) (CatK) | CatK activity in OC lysates (probe BMV109) (CatK; [1]) | formation of covalent CatK-inhibitor complex (Cathepsin K) | Measured mass complex (Cathepsin K) | IC50 (hCatV) [µM] | IC50 (hCatL) [µM] | reversibility of hCatK inhibition (hCatK) | CatK activity in OC lysates (probe BMV109) (CatK; all samples treated)
C#CCNC(=O)[C@H](CC(C)(C)F)N[C@@H](c1ccc(-c2ccc(S(C)(=O)=O)cc2)cc1)C(F)(F)F [Compound 4, (S)-4-fluoro-4-methyl-N-(prop-2-yn-1-yl)-2-(((S)-2,2,2-trifluoro-1-(4′-(methylsulfonyl)-[1,1′-biphenyl]-4-yl)ethyl)amino)pentanamide] | mature CatK is present | full inhibition of CatK activity | formation of a covalent hCatK—inhibitor complex; also recorded: covalent complex formed | 24217 | 23.8 ± 1.41 | > 100 | irreversible | 
C#CC(C)NC(=O)[C@H](CC(C)(C)F)N[C@@H](c1ccc(-c2ccc(S(C)(=O)=O)cc2)cc1)C(F)(F)F (mixture of isomers) [Compound 5, (S)—N—((R/S)-but-3-yn-2-yl)-4-fluoro-4-methyl-2-(((S)-2,2,2-trifluoro-1-(4′-(methylsulfonyl)-[1,1′-biphenyl]-4-yl)ethyl)amino)pentanamide] | mature CatK is present | full inhibition of CatK activity | formation of a covalent hCatK—inhibitor complex; also recorded: covalent complex formed | 24231 | 45.9 ± 2.33 | > 100 | irreversible | 
CC(C)(F)C[C@H](N[C@@H](c1ccc(-c2ccc(S(C)(=O)=O)cc2)cc1)C(F)(F)F)C(=O)NC1(C#N)CC1 [ODN, (S)—N-(1-cyanocyclopropyl)-4-fluoro-4-methyl-2-(((S)-2,2,2-trifluoro-1-(4′-(methylsulfonyl)-[1,1′-biphenyl]-4-yl)ethyl)amino)pentanamide, reference compound] |  |  | covalent complex formed | 24244 | 0.605 ± 0.0401 | 5.35 ± 0.596 | (fast) reversible inhibitor | strong increase of mature CatK activity
